Several values for one entry are separate records, joined by “and”; a condition that tells them apart may be missing. Equal entries are not always repeated.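 Cultured in 96-well plates, cells were exposed to test compound for 48 hours across five concentrations. At the GI50, growth is halved. The concentration for full growth arrest is given as TGI.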
How the values were obtained:
Experiment in all cases: inhibition of tumour cell growth, NCI panel, 48 h
[1] = system: A549 NSCLC
[2] = system: CCRF-CEM leukemia
[3] = system: HS 578T breast
[4] = system: NCI-H23 lung
[5] = system: NCI/ADR-RES ovarian
[6] = system: OVCAR-5 ovarian
[7] = system: OVCAR-8 ovarian
[8] = system: SF-268 CNS
[9] = system: K-562 leukemia
[10] = system: MDA-MB-231 breast

Compound	GI50 [1]	TGI [1]	GI50 [2]	TGI [2]	GI50 [3]	TGI [3]	GI50 [4]	TGI [4]	GI50 [5]	TGI [5]	GI50 [6]	TGI [6]	GI50 [7]	TGI [7]	GI50 [8]	TGI [8]	TGI [9]	TGI [10]	GI50 [9]	GI50 [10]
CCN(CC)CCOC(COc1cc(C)cc(C)c1)COc1cc(C)cc(C)c1	4.56 µM	16.9 µM	2.25 µM	8.24 µM	4.22 µM	16.7 µM	2.36 µM	14.7 µM	3.34 µM	14.6 µM	1.85 µM	6.18 µM	7.23 µM	22.2 µM	4.26 µM	17.6 µM	–	–	–	–
COC1C(OC(=O)c2ccc(C)[nH]2)C(O)C(Oc2ccc3c(O)c(NC(=O)c4ccc(O)c(CC=C(C)C)c4)c(=O)oc3c2Cl)OC1(C)C (configuration not stated)	–	91.7 µM	–	58.9 µM	–	61.9 µM	–	45.5 µM	–	–	–	33.2 µM	–	52 µM	–	57.4 µM	> 100 µM	49.4 µM	–	–
CC1[C@@]2(CCC(C)(C)O2)O[C@@H]2C=C3C4CCC5Cc6nc7c(nc6C[C@@]5(C)C4C[C@H](O)[C@@]3(C)[C@]12O)CC1CCC2C3=C[C@H]4O[C@@]5(O[C@@](C)(CO)C[C@@H]5O)C(C)[C@@]4(O)[C@]3(C)[C@@H](O)CC2[C@]1(C)C7 (some centres not stated)	0.0028 µM	0.711 µM	0.0017 µM	0.106 µM and 0.018 µM	–	–	0.00308 µM	–	–	2.05 µM	0.00586 µM	–	0.426 µM	1.2 µM	0.00464 µM	0.904 µM and 0.125 µM	0.44 µM and 0.445 µM	–	0.0103 µM	–
O=[N+]([O-])c1cccc(/C=N/Nc2ccc3ccccc3n2)c1O	–	> 70.8 µM	–	–	–	> 88.6 µM	–	12.1 µM	–	3.5 µM	–	48.3 µM	–	> 39 µM	–	15.3 µM	> 100 µM	25.6 µM	–	–
O=C(N/C(=C\c1ccc([N+](=O)[O-])cc1)c1nc2ccccc2s1)c1ccccc1	–	> 100 µM	–	66.3 µM	–	–	–	61.7 µM	–	–	–	> 100 µM	–	64.2 µM	–	56.2 µM	59.2 µM	–	–	–
O=P(CN1CCOCC1)(c1ccccc1)c1ccccc1	–	> 100 µM	–	> 100 µM	–	–	–	> 100 µM	–	–	–	> 100 µM	–	> 100 µM	–	> 100 µM	> 100 µM	–	–	–
CCCC1C[C@H]2CCCCN2[C@H]2CCCN12 (some centres not stated)	–	> 100 µM	–	> 68.6 µM	–	–	–	> 100 µM	–	–	–	> 100 µM	–	> 100 µM	–	> 100 µM	> 88.4 µM	–	–	–
[Br][Pb]([c]1ccccc1)([c]1ccccc1)[c]1ccccc1	0.356 µM	1.29 µM	0.202 µM	> 100 µM	–	–	0.174 µM	0.418 µM	0.229 µM	0.561 µM	0.289 µM	1.22 µM	0.186 µM	0.384 µM	0.171 µM	0.35 µM	–	0.514 µM	0.139 µM	0.208 µM
COC(=O)[C@@]12OC[C@]34[C@H]([C@@H](O)[C@@H]1O)[C@@]1(C)CC(=O)C(O)=C(C)[C@@H]1C[C@H]3OC(=O)[C@H](OC(=O)/C=C(\C)C(C)C)[C@@H]24	–	0.0168 µM and < 0.0163 µM and 0.0473 µM	0.00224 µM	0.0184 µM and 0.182 µM	0.02 µM	0.0209 µM and 0.0273 µM	–	0.015 µM and 0.0688 µM	–	–	–	–	–	0.0406 µM and 0.0561 µM	–	–	–	0.0822 µM and 0.0757 µM	–	0.0228 µM
COC(=O)C1=NC(=S)NC(c2ccccc2)C1c1nc2ccccc2o1 (configuration not stated)	–	> 50 µM	–	> 50 µM	–	–	–	> 50 µM	–	–	–	> 50 µM	–	> 50 µM	–	> 50 µM	> 50 µM	–	–	–
COc1ccc(/C=C/C(=O)c2c(-c3ccccc3)nn(C)c(=O)c2N2CC2C)cc1 (configuration not stated)	–	> 100 µM	–	73.9 µM	–	–	–	50.7 µM	–	–	–	> 100 µM	–	> 100 µM	–	> 100 µM	> 100 µM	–	–	–
FC(F)(F)c1ccccc1C1SCc2nc3ccccc3n21 (configuration not stated)	–	> 100 µM	–	> 100 µM	–	–	–	> 100 µM	–	–	–	> 100 µM	–	> 100 µM	–	> 100 µM	> 100 µM	–	–	–
COC(=O)C(=O)C(C(=O)C(=O)Nc1ccc([N+](=O)[O-])cc1)c1nc2ccccc2[nH]c1=O (configuration not stated)	–	> 100 µM	–	> 100 µM	–	–	–	> 100 µM	–	–	–	–	–	> 100 µM	–	> 100 µM	> 100 µM	–	–	–
O=C(/C=C/c1ccccc1)c1ccc(Cl)cc1Cl	–	60.3 µM	–	33.1 µM	–	–	–	75.8 µM	–	–	–	39.5 µM	–	28.4 µM	–	59.8 µM	30.1 µM	–	–	–
COC(=O)CC1(O)C(=O)OCc2c1cc1n(c2=O)Cc2c-1nc1ccccc1c2OC (configuration not stated)	–	> 100 µM	–	0.594 µM	–	–	–	1.68 µM	–	–	–	> 100 µM	–	> 28.5 µM	–	> 34 µM	> 100 µM	–	–	–
CC1NOC(=O)C1N=Nc1cccc(Cl)c1 (configuration not stated)	–	> 100 µM	–	57.7 µM	–	–	–	> 100 µM	–	–	–	> 100 µM	–	> 100 µM	–	89.9 µM	> 100 µM	–	–	–

Compound	GI50 [1]	TGI [1]	GI50 [2]	TGI [2]	GI50 [3]	TGI [3]	GI50 [4]	TGI [4]	GI50 [5]	TGI [5]	GI50 [6]	TGI [6]	GI50 [7]	TGI [7]	GI50 [8]	TGI [8]	TGI [9]	TGI [10]	GI50 [9]	GI50 [10]
NC(=NCCCCCCN=C(N)/N=C(\N)Nc1ccc(Cl)cc1)/N=C(\N)Nc1ccc(Cl)cc1	1.05 µM	5.3 µM	–	–	1.43 µM	4.73 µM	1.16 µM	3.59 µM	4.09 µM	50 µM	1.83 µM	6.32 µM	1.67 µM	7.19 µM	1.48 µM	4.46 µM	–	3.96 µM	–	1.42 µM
COc1ccc(/C=C/C(=N\NC(=O)c2ccccc2)c2sc(Nc3ccc([N+](=O)[O-])cc3)nc2C)cc1OC	–	28.9 µM	–	> 100 µM	–	–	–	–	–	–	–	> 100 µM	–	27 µM	–	33.5 µM	> 100 µM	–	–	–
COc1cc(C2CC(c3ccccc3)=NN2C=O)ccc1Oc1ccnc2cc(Cl)ccc12 (configuration not stated)	8.87 µM	> 100 µM	–	–	5.6 µM	> 100 µM	4.82 µM	> 100 µM	3.23 µM	> 100 µM	> 100 µM	> 100 µM	4.91 µM	> 100 µM	23.2 µM	> 100 µM	–	> 100 µM	–	28.5 µM
COC(=O)Cc1cc(=O)n2c3ccccc3n(C)c2c1C#N	–	> 100 µM	–	–	–	–	–	> 100 µM	–	–	–	> 100 µM	–	> 100 µM	–	> 100 µM	> 100 µM	–	–	–
Cc1nc2c(C)ccc([N+](=O)[O-])c2c(NCCCN(C)C)c1C	–	> 100 µM	–	> 100 µM	–	> 100 µM	–	> 100 µM	–	> 100 µM	–	> 100 µM	–	> 71.6 µM	–	> 100 µM	> 100 µM	–	–	–
C=CCNC(=S)NNC(=O)c1c(C)nc2sccn12	–	> 100 µM	–	> 100 µM	–	–	–	> 100 µM	–	–	–	> 100 µM	–	> 100 µM	–	> 100 µM	> 100 µM	–	–	–
CC(=O)CCC1(c2ccccc2)OC(=O)C(C#N)=C1c1ccccc1 (configuration not stated)	–	> 100 µM	–	> 100 µM	–	–	–	> 100 µM	–	–	–	> 100 µM	–	> 100 µM	–	> 100 µM	> 100 µM	–	–	–
Cc1cc(Cl)ccc1N=C1NC(=O)C(CC(=O)Nc2cccc(Cl)c2)S1 (configuration not stated)	–	> 100 µM	–	> 100 µM	–	–	–	> 100 µM	–	–	–	87.4 µM	–	> 100 µM	–	> 100 µM	> 100 µM	–	–	–
C[N+](C)(C)CC1CCC(C[N+](C)(C)C)C1=NO (configuration not stated)	–	> 100 µM	–	> 100 µM	–	–	–	> 100 µM	–	–	–	–	–	> 100 µM	–	> 100 µM	> 100 µM	–	–	–
CCCCNc1ncnc2c1cnn2-c1ccccc1	5.29 µM	> 92.8 µM	5.24 µM	> 100 µM	3.48 µM	58.2 µM	3.34 µM	> 100 µM	0.514 µM	5.26 µM	12.9 µM	> 100 µM	4.62 µM	> 88.1 µM	9.78 µM	> 84.5 µM	–	73 µM	–	16.9 µM
O=S(=O)(c1ccccc1)N1CCCC(c2ccccc2)CC1 (configuration not stated)	–	> 100 µM	–	> 100 µM	–	–	–	> 100 µM	–	> 100 µM	–	> 100 µM	–	> 100 µM	–	> 100 µM	> 100 µM	> 100 µM	–	–
Cc1c(Cl)ccc2c1NC(=O)C2(O)CC(=O)c1ccc(Cl)cc1 (configuration not stated)	–	> 100 µM	–	53.5 µM	–	–	–	> 100 µM	–	–	–	> 100 µM	–	> 100 µM	–	> 100 µM	> 64.8 µM	–	–	–
CC(C)(C)N/N=C(/Cc1nc2c3c(ccc2[nH]c1=O)C(=O)c1ccccc1C3=O)C(=O)NC1=C(Cl)C(=O)c2ccccc2C1=O	–	> 100 µM	–	> 100 µM	–	79.8 µM	–	> 100 µM	–	45.1 µM	–	> 100 µM	–	98.6 µM	–	43.5 µM	> 100 µM	–	–	–
Clc1ccc(C=Nc2ccc(-c3nc4ccccc4[nH]3)cc2)cc1	> 100 µM	> 100 µM	> 100 µM	> 100 µM	39 µM	> 100 µM	> 100 µM	> 100 µM	> 100 µM	> 100 µM	> 100 µM	> 100 µM	> 100 µM	> 100 µM	58.4 µM	> 100 µM	–	> 100 µM	–	> 100 µM
N#C/C(=C\c1ccc(O)cc1)C(N)=O	–	> 100 µM	–	> 100 µM	–	–	–	> 100 µM	–	> 100 µM	–	> 100 µM	–	> 100 µM	–	> 100 µM	> 100 µM	–	–	–
CCOc1ccc(NC(=O)CC2SC(=Nc3ccc(C)cc3)NC2=O)cc1 (configuration not stated)	–	> 100 µM	–	> 100 µM	–	–	–	> 100 µM	–	–	–	> 100 µM	–	> 100 µM	–	> 100 µM	–	–	–	–
